Measurements as given in patent US8703825B2, “Compounds, use thereof as medicaments, and method of preparation thereof” (Universite de Lorraine, priority 2008, dated 2014).
In brackets after ≈: the same amount, converted by molar mass. Like-named read-outs stand apart in the source and are kept apart here.

How the values were obtained:
Type in all cases: cell-based
[1] = system: Enterococcus faecalis ATCC 29212; assay: MIC by microdilution in liquid medium (CLSI / CA-SFM)
Excerpt: (§1) According to the joint recommendations: • of the “Comite de l′Antibiogramme de la Société Française de Microbiologie” (Antibiogram Committee of the French Society of Microbiology) (CA-SFM) [CA-SFM. Communique 2007 (Edition of January 2007). http://www.sfm.asso.fr] and, • of the “Clinical and Laboratory Standards Institute” (CLSI, formerly “National Committee for Clinical Laboratory Standards” or NCCLS) [NCCLS. 2003. Methods for dilution antimicrobial susceptibility tests for bacteria that grow aerobically; approved standard M7-A6, 6th ed. National Committee for Clinical Laboratory Standards, Wayne, Pa., USA.], five reference bacterial strains were used for the study: Escherichia coli ATCC 25922, Pseudomonas aeruginosa ATCC 27853, Staphylococcus aureus ATCC 25923 & ATCC 29213 and Enterococcus faecalis ATCC 29212.
(§2) The bacteria are cultivated either on Mueller-Hinton agar (Difco, 225250), or in Mueller-Hinton broth (Difco, 275730), at 35° C. [Grare M, Mourer M, Fontanay S, Regnouf-de-Vains J B, Finance C, Duval R E. In vitro activity of para-guanidinoethylcalix[4]arene against susceptible and antibiotic-resistant Gram-negative and Gram-positive bacteria. J. Antimicrob Chemother. 2007; 60: 575-81].
(§3) The various molecules tested were prepared in the form of aqueous solution at 10^−2 mol/L. The solutions used for the biological tests are freshly prepared, and stored for a week at most, at 4° C. The solutions are filtered through a filter with pores of 0.22 μm (Millex®GP; 0.22 μm; Millipore; France) before each test.
(§4) Procedure for determining the Minimum Inhibitory Concentration (MIC)
(§5) The minimum inhibitory concentrations (MIC) were determined by the standardized method of microdilution in liquid medium (96-well microplate, U-shaped bottom, Greiner), in Mueller-Hinton broth, with a final inoculum of 10^5-10^6 CFU/mL, depending on the bacterial species, in accordance with the recommendations of the CLSI.
(§6) For the determination of MIC, bacterial suspensions are prepared from an isolated colony, taken from a Mueller-Hinton agar, taken up in 5 mL of Mueller-Hinton broth. After 24 h of growth, the bacterial suspensions are diluted in sterile distilled water in order to obtain an inoculum of 10^5-10^6 CFU/mL. The purity of the bacterial suspensions is tested by isolation on agar and Gram staining.
(§7) The results are the mean value of 4 independent experiments.

[2] = system: Escherichia coli ATCC 25922; assay: as above; conditions: Escherichia coli
Excerpt: as §1, §2, §3, §4, §5, §6, §7

[3] = system: Pseudomonas aeruginosa ATCC 27853; assay: as above
Excerpt: as §1, §2, §3, §4, §5, §6, §7

[4] = system: Staphylococcus aureus ATCC 25923; assay: as above; conditions: Staphylococcus aureus
Excerpt: as §1, §2, §3, §4, §5, §6, §7

[5] = system: Staphylococcus aureus ATCC 29213; assay: as above; conditions: for Selectivity index (SI=IC50/MIC): S. aureus ATCC 29213, HaCaT cell lines, 24 h exposure; for MIC: Staphylococcus aureus
Excerpt: as §1, §2, §3, §4, §5, §6, §7

in vitro [6] = conditions: human
Excerpt: (§8) The eukaryotic cells used in our study are HaCaT cells (human keratinocytes), which were kindly supplied by the Pierre Fabre Institute (Toulouse, France); and MRC-5 cells (human embryonic fibroblasts), which were obtained from the company BioMérieux (Lyons, France). These cells are cultivated in DMEM (“Dulbecco's modified Eagle's medium”, Invitrogen 61965) for the HaCaT cells, and MEM (“modified Eagle's medium”, Invitrogen 41090); 10% of fetal calf serum (FCS, Invitrogen, 10270, Batch 40Q5150K) in a humid chamber at 37° C., under 5% CO2. The HaCaT and MRC-5 cells were seeded at 10^4 cells/well in 96-well plates (Sarstedt 831835). After 48 h of growth, the culture medium is withdrawn and replaced with the various “test” solutions (volume=100 μL). After contact time of 24, 48 and/or 168 H,the viability or cytotoxicity tests are carried out.
(§9) b) Cytotoxicity Tests (Neutral Red Test)
(§10) The cytotoxicity test is based on incorporation of a vital dye, Neutral Red, in the lysosomes of the viable cells, after exposure of the cells to different concentrations of the test molecules. The quantity of dye, after extraction from the lysosomes, is quantified by means of a spectrophotometer and compared with that obtained in the case of “control” cells, not exposed to the test molecules.
(§11) The test was carried out as described previously [Borenfreund E, Puerner J A. Toxicity determined in vitro by morphological alterations and neutral red absorption. Toxicol Lett 1985; 24: 119-24, and Grare M, Mourer M, Fontanay S, Regnouf-de-Vains J B, Finance C, Duval R E. In vitro activity of para-guanidinoethylcalix[4]arene against susceptible and antibiotic-resistant Gram-negative and Gram-positive bacteria. J Antimicrob Chemother. 2007; 60: 575-81].
(§12) After contact times of 24, 48 and/or 168 h with the different concentrations of the test molecules, the medium contained in each well is withdrawn and replaced with 200 μL of medium without phenol red (Invitrogen, 51200) containing 50 μg/mL of Neutral Red for an additional 3 h of incubation. The cells are then rinsed 3 times with PBS solution. After the last washing with PBS, 200 μL of a solution with 1% acetic acid/50% ethanol is added to each well to extract the dye from the lysosomes of the viable cells. The absorbance is measured at 540 nm, with a reference wavelength at 690 nm, by means of an ELISA plate reader (Multiskan E X, Thermo Electron Corporation, France). The results are the mean of the values obtained for 8 wells per concentration and per unit time. Each experiment was carried out 3 times.

in vitro [7] = conditions: human; remark: listed apart in the source
Excerpt: as §8, §9, §10, §11, §12

[8] = system: Escherichia coli ATCC 25922; assay: MIC by microdilution in liquid medium (CLSI / CA-SFM); conditions: E. coli ATCC 25922; HaCaT cell lines, 24 h exposure
[9] = system: Staphylococcus aureus ATCC 25923; assay: as above; conditions: S. aureus ATCC 25923; HaCaT cell lines, 24 h exposure
[10] = system: Enterococcus faecalis ATCC 29212; assay: as above; conditions: E. faecalis ATCC 29212; HaCaT cell lines, 24 h exposure
[11] = system: Pseudomonas aeruginosa ATCC 27853; assay: as above; conditions: P. aeruginosa ATCC 27853; HaCaT cell lines, 24 h exposure
[12] = ATCC29212, E. faecalis ATCC 29212, reference strain, read-out: MIC
[13] = ATCC25922, E. coli ATCC 25922, reference strain, read-out: MIC
[14] = ATCC27853, P. aeruginosa ATCC 27853, reference strain, read-out: MIC
[15] = ATCC25923, S. aureus ATCC 25923, reference strain, read-out: MIC
[16] = ATCC29213, S. aureus ATCC 29213, reference strain, read-out: MIC

Structure (SMILES)	MIC [1, 12] [µg/mL]	MIC [2, 13] [µg/mL]	MIC [3, 14] [µg/mL]	MIC [4, 15] [µg/mL]	Selectivity index (SI=IC50/MIC) [5]	MIC [5, 16] [µg/mL]	CC50 at 24 h (in vitro [6]) [µg/mL]	CC50 at 24 h (in vitro [7]) [µg/mL]	Selectivity index (SI=IC50/MIC) [8]	Selectivity index (SI=IC50/MIC) [9]	Selectivity index (SI=IC50/MIC) [10]	Selectivity index (SI=IC50/MIC) [11]	MIC ([1]; ATCC29212) [µg/mL]	MIC ([2]; ATCC25922) [µg/mL]	MIC ([3]; ATCC27853) [µg/mL]	MIC ([4]; ATCC25923) [µg/mL]	MIC ([5]; ATCC29213) [µg/mL]	CC50 at 48 h (in vitro [6]) [µg/mL]	CC50 at 48 h (in vitro [7]) [µg/mL]	CC50 at 168 h (in vitro [6]) [µg/mL]
[H]/N=C(\N/C(=N/[H])NCCCCCCNC(=N)NC(=N)Nc1ccc(Cl)cc1)Nc1ccc(Cl)cc1 [CHX, chlorhexidine]	2 (≈ 3.96 µM)	0.25 (≈ 0.495 µM)	8 (≈ 15.8 µM)	0.5 (≈ 0.989 µM)	32-64	0.5 (≈ 0.989 µM)	8 to 16 (≈ 15.8 to 31.7 µM)	8 to 16 (≈ 15.8 to 31.7 µM)	64-128	32-64	8-16	2-4								
N=C(N)c1ccc(OCCCCCCOc2ccc(C(=N)N)cc2)cc1 [HX, hexamidine]					≧32		8 to 16 (≈ 22.6 to 45.1 µM)	8 to 16 (≈ 22.6 to 45.1 µM)	4-8	8-16	16-32	1-2	2 (≈ 5.64 µM)	8 (≈ 22.6 µM)	32 (≈ 90.3 µM)	4 (≈ 11.3 µM)	< 1	8 to 16 (≈ 22.6 to 45.1 µM)	8 to 16 (≈ 22.6 to 45.1 µM)	
N=C(N)NCCc1ccc(OCCCCCCOc2ccc(CCNC(=N)N)cc2)cc1 [compound 6, 1,6-bis(4-(2-guanidinoethyl)phenoxy)hexane]	8 (≈ 18.2 µM)	4 (≈ 9.08 µM)	16 (≈ 36.3 µM)	0.5 (≈ 1.13 µM)	16-32	0.25 (≈ 0.567 µM)	4 to 8 (≈ 9.08 to 18.2 µM)	4 to 8 (≈ 9.08 to 18.2 µM)	1-2	8-16	0.5-1^	0.25-0.5						2 to 4 (≈ 4.54 to 9.08 µM)		1 to 2 (≈ 2.27 to 4.54 µM)
